Measured values taken from ChEMBL document CHEMBL1157411, “Marine natural product libraries for high-throughput screening and rapid drug discovery” (J Nat Prod, 2008).
Activity calls are given as the source filed them. The rule behind the calls is not given here.

How the values were obtained:
[1] = tested on: Nucleic Acid; assay: Binding affinity to supercoiled pRYG plasmid DNA assessed as DNA intercalation at 50 uM after 21 hrs by electrophoresis; type: nucleic-acid assay
[2] = Cytotoxicity against BRCA2-deficient Chinese hamster V-C8 mutant cells after 3 days by WST1 cell viability assay; type: functional, cell-based; details: Cricetulus griseus, WST1, 72 h
[3] = Cytotoxicity against BRCA2-proficient Chinese hamster BAC29 mutant cells after 3 days by WST1 cell viability assay; type: functional, cell-based; details: Cricetulus griseus, WST1, 72 h
[4] = Selectivity ratio for IC50 of BRCA2-deficient Chinese hamster V-C8 mutant cells to IC50 of BRCA2-proficient Chinese hamster BAC29 mutant cells; type: functional, Cricetulus griseus

| SMILES | Activity [1] | IC50 [2] | IC50 [3] | Ratio IC50 [4] |
| --- | --- | --- | --- | --- |
| COc1cccc2c1C(=O)c1c(O)c3c(c(O)c1C2=O)C[C@@](O)(C(=O)CO)C[C@@H]3O[C@H]1C[C@H](N)[C@H](O)[C@H](C)O1 | Active | – | – | – |
| CO[C@@]12[C@H](COC(N)=O)C3=C(C(=O)C(C)=C(N)C3=O)N1C[C@@H]1N[C@@H]12 [MITOMYCIN] | – | 5 nM | 400 nM | 292 |
